Where “and” joins values, the source holds several entries; their conditions need not be identical. Equal values may be shown once. Read-outs that look alike come from different tables or passages of the source. Square brackets hold non-standard residues; d marks the D form. Peptide text beside a SMILES is read from it. Gly(Nα-4-Cl-benzyl) = O=C(O)CNCc1ccc(Cl)cc1; Gly(N-(CH2)6NH2) = NCCCCCCNCC(=O)O; Nspe = C[C@H](NCC(=O)O)c1ccccc1; Nphe = O=C(O)CNCc1ccccc1; Nlys = NCCCCNCC(=O)O
Assays:
Format in all cases: cell-based
[1] = test system: Escherichia coli K-12 wild-type strain (W3110/ATCC27325); conditions: lowest concentration completely inhibiting growth, 37 °C, 16 h; range 2–100 μM
Procedure: (§1) Escherichia coli K-12 wild-type strain (W3110/ATCC27325, F^–, λ^–, rpoS(Am), rph-1, Inv(rrnD-rrnE)), Pseudomonas aeruginosa PA01 (ATCC 15692) Staphylococcus aureus (3R7089 strain Oxford/ATCC9144) and Staphylococcus epidermidis (laboratory strain from clinical isolate) were selected for bacteriological studies as representative Gram-negative (E. coli and P. aeruginosa) and Gram-positive (S. aureus and S. epidermidis) species. Bacterial cultures were prepared by streaking bacterial strains onto LB agar plates with an inoculation loop and incubated overnight at 37 °C. A single colony was selected and placed in 5 mL of Iso-sensitest broth (Oxoid, ThermoScientific) and incubated with shaking for 16–18 h at 37 °C to provide liquid cultures for testing.
(§2) MIC values were obtained according to the protocol described by J. M. Andrews et al.[58] and were conducted in 96-well plates (Sarstedt). Bacteria were grown from overnight cultures in Iso-sensitest broth to an A650nm of 0.07 equivalent to a 0.5 MacFarland standard (240 μM BaCl2 in 0.18 M H2SO4). This culture was diluted ten-fold with Iso-sensitest broth before use. Peptoids were initially dissolved in DMSO (5 mM) and diluted further in Iso-sensitest broth to achieve a concentration range of 4–200 μM using 2-fold serial dilutions. 50 μl of inoculum and 50 μl of peptoid solution were added to each test well (final concentration range of 2–100 μM). Experiments were performed in triplicate. A positive control for bacterial growth contained only the inoculum and Iso-sensitest broth. Other controls contained the inoculum and serial dilutions of ampicillin (from 250 μg mL^–1 to 2 μg mL^–1), serial dilutions of DMSO and the inoculum to confirm no inhibitory effect on bacterial growth, and Iso-sensitest broth alone as a sterile control. […] Quantitative data was attained from absorbance values using a Biotek Synergy H4 plate reader.
(§3) Antibacterial MIC determination
as §1, with “(W3110 / ATCC27325, F-, λ-,” for “(W3110/ATCC27325, F^–, λ^–,”, “Oxford / ATCC9144)” for “Oxford/ATCC9144)”, “°C.” for “°C. A single colony was selected and placed in 5 mL of Iso-sensitest broth (Oxoid, ThermoScientific) and incubated with shaking for 16–18 h at 37 °C to provide liquid cultures for testing.”
(§4) A single colony was selected and placed in 5 mL of Iso-sensitest broth (Oxoid, ThermoScientific) and incubated with shaking for 16-18 h at 37 °C to provide liquid […]
(§5) MIC values were obtained according to the protocol described by J. M. Andrews et al.1 and were conducted in 96-well plates (Sarstedt). Bacteria were grown from overnight cultures in Iso-sensitest broth to an A650nm of 0.07 equivalent to a 0.5 MacFarland standard (240 μM BaCl2 in 0.18 M H2SO4). This culture was diluted ten-fold with Iso-sensitest broth before use. Peptoids were initially dissolved in DMSO (5 mM) and diluted further in Iso-sensitest broth to achieve a concentration range of 4 – 200 µM using 2-fold serial dilutions. 50 μl of inoculum and 50 μl of peptoid solution were added to each test well (final concentration range of 2 – 100 µM). Experiments were performed in triplicate. A positive control for bacterial growth contained only the inoculum and Iso-sensitest broth. Other controls contained the inoculum and serial dilutions of ampicillin (from 250 µg/mL to 2 µg/mL), serial dilutions of DMSO and the inoculum to confirm no inhibitory effect on bacterial growth, and Iso-sensitest broth alone as a sterile control. […]
(§6) growth after incubation at 37 °C for 16 h with shaking. Quantitative data was attained from absorbance values using a Biotek Synergy H4 plate reader.

[2] = test system: Pseudomonas aeruginosa PA01 (ATCC 15692)
Procedure: as §1, §2, §3
as §1, with “(W3110 / ATCC27325, F-, λ-,” for “(W3110/ATCC27325, F^–, λ^–,”, “Oxford / ATCC9144)” for “Oxford/ATCC9144)”, “°C.” for “°C. A single colony was selected and placed in 5 mL of Iso-sensitest broth (Oxoid, ThermoScientific) and incubated with shaking for 16–18 h at 37 °C to provide liquid cultures for testing.”
as §4, §5, §6

[3] = test system: Staphylococcus aureus (3R7089 strain Oxford/ATCC9144)
Procedure: as §1, §2, §3
as §1, with “(W3110 / ATCC27325, F-, λ-,” for “(W3110/ATCC27325, F^–, λ^–,”, “Oxford / ATCC9144)” for “Oxford/ATCC9144)”, “°C.” for “°C. A single colony was selected and placed in 5 mL of Iso-sensitest broth (Oxoid, ThermoScientific) and incubated with shaking for 16–18 h at 37 °C to provide liquid cultures for testing.”
as §4, §5, §6

[4] = test system: Staphylococcus epidermidis (laboratory strain from clinical isolate); conditions: for MIC S. epidermidis: 16 h
Procedure: as §1, §2, §3
as §1, with “(W3110 / ATCC27325, F-, λ-,” for “(W3110/ATCC27325, F^–, λ^–,”, “Oxford / ATCC9144)” for “Oxford/ATCC9144)”, “°C.” for “°C. A single colony was selected and placed in 5 mL of Iso-sensitest broth (Oxoid, ThermoScientific) and incubated with shaking for 16–18 h at 37 °C to provide liquid cultures for testing.”
as §4, §5, §6

[5] = lowest concentration completely inhibiting growth, 37 °C, 16 h, range 2–100 μM
[6] = laboratory strain from clinical isolate
[7] = lowest concentration completely inhibiting growth, 37 °C, range 2–100 μM

C[C@@H](c1ccccc1)N(CC(N)=O)C(=O)CN(C(=O)CN(CCCCN)C(=O)CN(Cc1ccc(F)cc1)C(=O)CN(Cc1ccc(F)cc1)C(=O)CN(CCCCN)C(=O)CN(C(=O)CN(C(=O)CN(CCCCN)C(=O)CN(Cc1ccc(F)cc1)C(=O)CN(Cc1ccc(F)cc1)C(=O)CNCCCCN)[C@@H](C)c1ccccc1)[C@@H](C)c1ccccc1)[C@@H](C)c1ccccc1 [Peptoid 28, [(NLysNpfbNpfb)(NLysNspeNspe)]2]
MIC E. coli [1]: 6 µM
MIC P. aeruginosa [2, 5]: 50 µM
MIC S. aureus [3, 5]: 2 µM
MIC S. epidermidis [4, 6]: < 1 µM
MIC S. epidermidis [4, 7]: 1 µM

CCCCCNCC(=O)N(CC(=O)N(CC(=O)N(CCCCN)CC(=O)N(CC(=O)N(CC(=O)N(CCCCN)CC(=O)N(CC(=O)N(CC(=O)N(CCCCN)CC(=O)N(CC(=O)N(CC(N)=O)[C@@H](C)c1ccccc1)[C@@H](C)c1ccccc1)[C@@H](C)c1ccccc1)[C@@H](C)c1ccccc1)[C@@H](C)c1ccccc1)[C@@H](C)c1ccccc1)[C@@H](C)c1ccccc1)[C@@H](C)c1ccccc1 [Peptoid 30, (NamyNspeNspe)[(NLysNspeNspe)]3]
MIC E. coli [1]: 50 µM
MIC P. aeruginosa [2, 5]: 50 µM
MIC S. aureus [3, 5]: 2 µM
MIC S. epidermidis [4, 7]: 2 µM

NCCCCNCC(=O)N(CC(=O)N(CC(=O)N(CCCCN)CC(=O)N(CC(=O)N(CC(=O)N(CCCCN)CC(=O)N(CC(=O)N(CC(N)=O)Cc1ccccc1)Cc1ccccc1)Cc1ccccc1)Cc1ccccc1)Cc1ccccc1)Cc1ccccc1 [Peptoid 5, (NLysNpheNphe)3]
MIC E. coli [1]: 50 µM
MIC P. aeruginosa ([2]; ATCC 15692, 16 h): >100 µM
MIC P. aeruginosa [2, 5]: 100 µM
MIC S. aureus [3, 5]: 25 µM
MIC S. epidermidis [4, 7]: 6 µM

NCCCCNCC(=O)N(CC(=O)N(CC(=O)N(CCCCN)CC(=O)N(CC(=O)N(CC(=O)N(CCCCN)CC(=O)N(CC(=O)N(CC(=O)N(CCCCN)CC(=O)N(CC(=O)N(CC(N)=O)Cc1ccc(Cl)cc1)Cc1ccc(Cl)cc1)Cc1ccc(Cl)cc1)Cc1ccc(Cl)cc1)Cc1ccc(Cl)cc1)Cc1ccc(Cl)cc1)Cc1ccc(Cl)cc1)Cc1ccc(Cl)cc1 [Peptoid 20, (NLysNpcbNpcb)4] (H-[Nlys][Gly(Nα-4-Cl-benzyl)][Gly(Nα-4-Cl-benzyl)][Nlys][Gly(Nα-4-Cl-benzyl)][Gly(Nα-4-Cl-benzyl)][Nlys][Gly(Nα-4-Cl-benzyl)][Gly(Nα-4-Cl-benzyl)][Nlys][Gly(Nα-4-Cl-benzyl)][Gly(Nα-4-Cl-benzyl)]-NH2)
MIC E. coli [1]: 100 µM and > 100 µM
MIC P. aeruginosa ([2]; ATCC 15692, 16 h): >100 µM
MIC P. aeruginosa [2, 5]: 100 µM
MIC S. aureus [3, 5]: 25 µM
MIC S. epidermidis [4, 7]: 6 µM

C[C@@H](c1ccccc1)N(CC(N)=O)C(=O)CN(C(=O)CN(CCCCCCN)C(=O)CN(C(=O)CN(C(=O)CN(CCCCCCN)C(=O)CN(C(=O)CN(C(=O)CN(CCCCCCN)C(=O)CN(C(=O)CN(C(=O)CNCCCCCCN)[C@@H](C)c1ccccc1)[C@@H](C)c1ccccc1)[C@@H](C)c1ccccc1)[C@@H](C)c1ccccc1)[C@@H](C)c1ccccc1)[C@@H](C)c1ccccc1)[C@@H](C)c1ccccc1 [Peptoid 10, (NahNspeNspe)4] (H-[Gly(N-(CH2)6NH2)][Nspe][Nspe][Gly(N-(CH2)6NH2)][Nspe][Nspe][Gly(N-(CH2)6NH2)][Nspe][Nspe][Gly(N-(CH2)6NH2)][Nspe][Nspe]-NH2; N-terminus assumed)
MIC E. coli [1]: 25 µM
MIC P. aeruginosa [2, 5]: 50 µM
MIC S. aureus [3, 5]: 2 µM
MIC S. epidermidis [4, 7]: 2 µM

C[C@@H](c1ccccc1)N(CC(N)=O)C(=O)CN(C(=O)CN(CCN)C(=O)CN(C(=O)CN(C(=O)CNCCN)[C@@H](C)c1ccccc1)[C@@H](C)c1ccccc1)[C@@H](C)c1ccccc1 [Peptoid 18, (NaeNspeNspe)2]
MIC E. coli [1]: >100 µM
MIC P. aeruginosa ([2]; ATCC 15692, 16 h): >100 µM
MIC P. aeruginosa [2, 5]: 100 µM
MIC S. aureus ([3]; ATCC9144, 16 h): >100 µM
MIC S. aureus [3, 5]: 100 µM
MIC S. epidermidis [4, 6]: >100 µM
MIC S. epidermidis [4, 7]: 100 µM

C[C@@H](c1ccccc1)N(CC(N)=O)C(=O)CN(C(=O)CN(CCCCN)C(=O)CN(C(=O)CN(C(=O)CNCCCCN)[C@@H](C)c1ccccc1)[C@@H](C)c1ccccc1)[C@@H](C)c1ccccc1 [Peptoid 15, (NLysNspeNspe)2] (H-[Nlys][Nspe][Nspe][Nlys][Nspe][Nspe]-NH2)
MIC E. coli [1]: >100 µM
MIC P. aeruginosa ([2]; ATCC 15692, 16 h): >100 µM
MIC P. aeruginosa [2, 5]: 100 µM
MIC S. aureus ([3]; ATCC9144, 16 h): >100 µM
MIC S. aureus [3, 5]: 100 µM
sensitivity of S. epidermidis (in words) ([4]; compared with the other bacteria tested): some increased sensitivity
MIC S. epidermidis [4, 7]: 25 µM

C[C@@H](c1ccccc1)N(CC(N)=O)C(=O)CN(C(=O)CN(CCCCN)C(=O)CN(Cc1ccc(F)cc1)C(=O)CN(Cc1ccc(F)cc1)C(=O)CN(CCCCN)C(=O)CN(C(=O)CN(C(=O)CNCCCCN)[C@@H](C)c1ccccc1)[C@@H](C)c1ccccc1)[C@@H](C)c1ccccc1 [Peptoid 29, (NLysNspeNspe)(NLysNpfbNpfb)(NLysNspeNspe)]
MIC E. coli [1]: 13 µM
MIC P. aeruginosa [2, 5]: 25 µM
MIC S. aureus [3, 5]: 3 µM
MIC S. epidermidis [4, 7]: 2 µM

NCCCCCCNCC(=O)N(CC(=O)N(CC(=O)N(CCCCCCN)CC(=O)N(CC(=O)N(CC(=O)N(CCCCCCN)CC(=O)N(CC(=O)N(CC(=O)N(CCCCCCN)CC(=O)N(CC(=O)N(CC(N)=O)Cc1ccccc1)Cc1ccccc1)Cc1ccccc1)Cc1ccccc1)Cc1ccccc1)Cc1ccccc1)Cc1ccccc1)Cc1ccccc1 [Peptoid 1, (NahNpheNphe)4] (H-[Gly(N-(CH2)6NH2)][Nphe][Nphe][Gly(N-(CH2)6NH2)][Nphe][Nphe][Gly(N-(CH2)6NH2)][Nphe][Nphe][Gly(N-(CH2)6NH2)][Nphe][Nphe]-NH2)
MIC E. coli [1]: 13 µM
MIC P. aeruginosa ([2]; ATCC 15692, 16 h): >100 µM

C[C@@H](c1ccccc1)N(CC(N)=O)C(=O)CN(C(=O)CN(CCCCCCN)C(=O)CN(C(=O)CN(C(=O)CNCCCCCCN)[C@@H](C)c1ccccc1)[C@@H](C)c1ccccc1)[C@@H](C)c1ccccc1 [Peptoid 12, (NahNspeNspe)2]
MIC E. coli [1]: >100 µM
MIC P. aeruginosa ([2]; ATCC 15692, 16 h): >100 µM
MIC S. aureus ([3]; ATCC9144, 16 h): >100 µM

C[C@@H](c1ccccc1)N(CC(N)=O)C(=O)CN(C(=O)CN(CCCCCCN)C(=O)CN(C(=O)CN(C(=O)CN(CCCCCCN)C(=O)CN(C(=O)CN(C(=O)CNCCCCCCN)[C@@H](C)c1ccccc1)[C@@H](C)c1ccccc1)[C@@H](C)c1ccccc1)[C@@H](C)c1ccccc1)[C@@H](C)c1ccccc1 [Peptoid 11, (NahNspeNspe)3] (H-[Gly(N-(CH2)6NH2)][Nspe][Nspe][Gly(N-(CH2)6NH2)][Nspe][Nspe][Gly(N-(CH2)6NH2)][Nspe][Nspe]-NH2)
MIC E. coli [1]: 25 µM
MIC P. aeruginosa ([2]; ATCC 15692, 16 h): >100 µM

NCCCCCCNCC(=O)N(CC(=O)N(CC(=O)N(CCCCCCN)CC(=O)N(CC(=O)N(CC(=O)N(CCCCCCN)CC(=O)N(CC(=O)N(CC(N)=O)Cc1ccccc1)Cc1ccccc1)Cc1ccccc1)Cc1ccccc1)Cc1ccccc1)Cc1ccccc1 [Peptoid 2, (NahNpheNphe)3] (H-[Gly(N-(CH2)6NH2)][Nphe][Nphe][Gly(N-(CH2)6NH2)][Nphe][Nphe][Gly(N-(CH2)6NH2)][Nphe][Nphe]-NH2)
MIC E. coli [1]: 50 µM
MIC P. aeruginosa ([2]; ATCC 15692, 16 h): >100 µM
